# Test results: US11498899B2, “Nitrone herbicides” (FMC Corporation, priority 2016, dated 2022)
# Key:
# [1] = tested on: barnyardgrass (Echinochloa crus-galli); experiment: Test A preemergence, visual injury rating 0-100 (0 no effect, 100 complete control); format: in vivo; settings: for Barnyardgrass plant response rating (0 to 100 scale): 125 g ai/ha; for Barnyardgrass plant response rating: 500 g ai/ha, 0 to 100 scale
# [2] = tested on: foxtail, green (green foxtail, Setaria viridis); experiment: Test A preemergence, visual injury rating 0-100; format: in vivo
# [3] = tested on: kochia (Kochia scoparia); experiment: Test A preemergence, visual injury rating 0-100; format: in vivo
# [4] = tested on: pigweed (Amaranthus retroflexus); experiment: Test A preemergence, visual injury rating 0-100; format: in vivo
# [5] = tested on: ragweed (common ragweed, Ambrosia elatior); experiment: Test A preemergence, visual injury rating 0-100; format: in vivo
# [6] = tested on: ryegrass, Italian (Italian ryegrass, Lolium multiflorum); experiment: Test A preemergence, visual injury rating 0-100; format: in vivo
# [7] = tested on: barnyardgrass (Echinochloa crus-galli); experiment: Test A postemergence, visual injury rating 0-100; format: in vivo; settings: 0 to 100 scale
# [8] = tested on: blackgrass (Alopecurus myosuroides); experiment: Test A postemergence, visual injury rating 0-100; format: in vivo; settings: 0 to 100 scale
# [9] = tested on: corn (Zea mays); experiment: Test A postemergence, visual injury rating 0-100; format: in vivo; settings: 0 to 100 scale
# [10] = tested on: foxtail, green (green foxtail, Setaria viridis); experiment: Test A postemergence, visual injury rating 0-100; format: in vivo; settings: 0 to 100 scale
# [11] = tested on: kochia (Kochia scoparia); experiment: Test A postemergence, visual injury rating 0-100; format: in vivo; settings: 0 to 100 scale
# [12] = tested on: pigweed (Amaranthus retroflexus); experiment: Test A postemergence, visual injury rating 0-100; format: in vivo; settings: 0 to 100 scale
# [13] = tested on: ragweed (common ragweed, Ambrosia elatior); experiment: Test A postemergence, visual injury rating 0-100; format: in vivo; settings: 0 to 100 scale
# [14] = tested on: ryegrass, Italian (Italian ryegrass, Lolium multiflorum); experiment: Test A postemergence, visual injury rating 0-100; format: in vivo; settings: 0 to 100 scale
# [15] = tested on: wheat (Triticum aestivum); experiment: Test A postemergence, visual injury rating 0-100; format: in vivo; settings: 0 to 100 scale
# [16] = tested on: ducksalad (Heteranthera limosa); experiment: Test B flooded paddy test, visual rating 0-100; settings: Flood, 250 g ai/ha, applied to paddy water, rated after 13 to 15 days
# [17] = tested on: barnyardgrass (Echinochloa crus-galli); experiment: Test B flooded paddy test, visual rating 0-100; settings: Flood, 250 g ai/ha, applied to paddy water, rated after 13 to 15 days
# [18] = tested on: rice (Oryza sativa); experiment: Test B flooded paddy test, visual rating 0-100 (0 no effect, 100 complete control); settings: Flood, 250 g ai/ha, applied to paddy water, rated after 13 to 15 days
SMILES,Barnyardgrass plant response rating (0 to 100 scale) [1],Barnyardgrass plant response rating [1],"Foxtail, Green plant response rating (0 to 100 scale) ([2]; 125 g ai/ha)",Kochia plant response rating (0 to 100 scale) ([3]; 125 g ai/ha),Pigweed plant response rating (0 to 100 scale) ([4]; 125 g ai/ha),Ragweed plant response rating (0 to 100 scale) ([5]; 125 g ai/ha),"Ryegrass, Italian plant response rating (0 to 100 scale) ([6]; 125 g ai/ha)",Barnyardgrass plant response rating ([7]; 125 g ai/ha),Barnyardgrass plant response rating ([7]; 500 g ai/ha),Blackgrass plant response rating ([8]; 125 g ai/ha),Blackgrass plant response rating ([8]; 500 g ai/ha),Corn plant response rating ([9]; 125 g ai/ha),Corn plant response rating ([9]; 500 g ai/ha),"Foxtail, Green plant response rating ([10]; 125 g ai/ha)","Foxtail, Green plant response rating ([10]; 500 g ai/ha)",Kochia plant response rating ([11]; 125 g ai/ha),Kochia plant response rating ([11]; 500 g ai/ha),Pigweed plant response rating ([12]; 125 g ai/ha),Pigweed plant response rating ([12]; 500 g ai/ha),Ragweed plant response rating ([13]; 125 g ai/ha),also measured
CC1=[N+]([O-])C(C(=O)Nc2ccccc2[S+](C)[O-])C(c2ccc(C(F)(F)F)cc2)C1 (racemic) [Compound 44],0,70,0,0,20,0,0,0,0,0,20,0,0,0,30,0,10,0,20,0,"Foxtail, Green plant response rating (0 to 100 scale) ([2]; 500 g ai/ha): 100; Kochia plant response rating (0 to 100 scale) ([3]; 500 g ai/ha): 0; Pigweed plant response rating (0 to 100 scale) ([4]; 500 g ai/ha): 90; Ragweed plant response rating (0 to 100 scale) ([5]; 500 g ai/ha): 80; Ryegrass, Italian plant response rating (0 to 100 scale) ([6]; 500 g ai/ha): 0; Ragweed plant response rating ([13]; 500 g ai/ha): 0; Ryegrass, Italian plant response rating ([14]; 125 g ai/ha): 0; Ryegrass, Italian plant response rating ([14]; 500 g ai/ha): 0; Wheat plant response rating ([15]; 125 g ai/ha): 0; Wheat plant response rating ([15]; 500 g ai/ha): 0; Ducksalad plant response rating (0 to 100 scale) [16]: 0; Barnyardgrass plant response rating (0 to 100 scale) [17]: 0; Rice plant response rating (0 to 100 scale) [18]: 0"
CC1=[N+]([O-])C(C(=O)Nc2ccc(F)cc2F)C(c2ccc(C(F)(F)F)cc2)C1 (racemic) [Compound 46],70,100,90,0,50,0,0,10,90,20,70,0,40,40,90,0,40,0,30,0,"Foxtail, Green plant response rating (0 to 100 scale) ([2]; 500 g ai/ha): 100; Kochia plant response rating (0 to 100 scale) ([3]; 500 g ai/ha): 90; Pigweed plant response rating (0 to 100 scale) ([4]; 500 g ai/ha): 90; Ragweed plant response rating (0 to 100 scale) ([5]; 500 g ai/ha): 90; Ryegrass, Italian plant response rating (0 to 100 scale) ([6]; 500 g ai/ha): 0; Ragweed plant response rating ([13]; 500 g ai/ha): 30; Ryegrass, Italian plant response rating ([14]; 125 g ai/ha): 0; Ryegrass, Italian plant response rating ([14]; 500 g ai/ha): 40; Wheat plant response rating ([15]; 125 g ai/ha): 0; Wheat plant response rating ([15]; 500 g ai/ha): 20; Ducksalad plant response rating (0 to 100 scale) [16]: 100; Barnyardgrass plant response rating (0 to 100 scale) [17]: 40; Rice plant response rating (0 to 100 scale) [18]: 20"
"CC1=[N+]([O-])[C@H](C(=O)Nc2cccc(F)c2F)[C@@H](c2ccc3c(c2)OC(F)(F)O3)C1 (relative stereo) [Compound 25, rel-(2S,3R)-3-(2,2-Difluoro-1,3-benzodioxol-5-yl)-N-(2,3-difluorophenyl)-3,4-dihydro-5-methyl-2H-pyrrole-2-carboxamide 1-oxide]",90,90,90,50,80,50,80,70,90,20,40,60,80,40,90,60,60,60,70,40,"Foxtail, Green plant response rating ([2]; 500 g ai/ha, 0 to 100 scale): 90; Kochia plant response rating ([3]; 500 g ai/ha, 0 to 100 scale): 80; Pigweed plant response rating ([4]; 500 g ai/ha, 0 to 100 scale): 90; Ragweed plant response rating ([5]; 500 g ai/ha, 0 to 100 scale): 100; Ryegrass, Italian plant response rating ([6]; 500 g ai/ha, 0 to 100 scale): 50; Ragweed plant response rating ([13]; 500 g ai/ha): 50; Ryegrass, Italian plant response rating ([14]; 125 g ai/ha): 40; Ryegrass, Italian plant response rating ([14]; 500 g ai/ha): 50; Wheat plant response rating ([15]; 125 g ai/ha): 70; Wheat plant response rating ([15]; 500 g ai/ha): 90; Ducksalad plant response rating (0 to 100 scale) [16]: 90; Barnyardgrass plant response rating (0 to 100 scale) [17]: 75; Rice plant response rating (0 to 100 scale) [18]: 0"
"CC1=[N+]([O-])[C@H](C(=O)Nc2ccc(F)nc2F)[C@@H](c2ccc(C(F)(F)F)cc2)C1 (relative stereo) [Compound 37, rel-(2S,3R)—N-(2,6-Difluoro-3-pyridinyl)-3,4-dihydro-5-methyl-3-[4-(trifluoromethyl)phenyl]-2H-pyrrole-2-carboxamide 1-oxide]",90,100,90,70,80,90,0,40,70,20,90,20,50,60,90,10,70,0,70,0,"Foxtail, Green plant response rating (0 to 100 scale) ([2]; 500 g ai/ha): 100; Kochia plant response rating (0 to 100 scale) ([3]; 500 g ai/ha): 90; Pigweed plant response rating (0 to 100 scale) ([4]; 500 g ai/ha): 100; Ragweed plant response rating (0 to 100 scale) ([5]; 500 g ai/ha): 100; Ryegrass, Italian plant response rating (0 to 100 scale) ([6]; 500 g ai/ha): 0; Ragweed plant response rating ([13]; 500 g ai/ha): 60; Ryegrass, Italian plant response rating ([14]; 125 g ai/ha): 0; Ryegrass, Italian plant response rating ([14]; 500 g ai/ha): 40; Wheat plant response rating ([15]; 125 g ai/ha): 10; Wheat plant response rating ([15]; 500 g ai/ha): 60; Ducksalad plant response rating (0 to 100 scale) [16]: 100; Barnyardgrass plant response rating (0 to 100 scale) [17]: 45; Rice plant response rating (0 to 100 scale) [18]: 0"
